{"source": "patent US9980943B2", "about": "“Methods of treating muscular dystrophy” (BOARD OF REGENTS OF THE NEVADA SYSTEM OF HIGHER EDUCATION, …, priority 2013, dated 2018)", "type_in_all_cases": "cell-based, mouse", "key": {"[1]": {"test_system": "α7 integrin (LacZ reporter in α7+/LacZ myotubes)", "experiment": "Myotube α7 integrin FDG assay (Burkin assay in myotubes, 96-well)", "conditions": "for Burkin Assay in Myotubes, value relative to DMSO: SU9516 analogs, 96-well, N=3-6"}, "[2]": {"test_system": "β-galactosidase in CMV-LacZ C2C12 myoblasts", "experiment": "CMV-LacZ secondary screen in C2C12 myoblasts (β-Gal stabilizing assay)", "conditions": "for CMV-LACZ in Myoblasts (β-galactosidase activity relative to DMSO): CMV-LacZ C2C12 myoblasts; for CMV-LACZ in Myoblasts, value relative to DMSO: SU9516 analogs, C2C12 CMV-LacZ, N=2", "summary_of_the_method": "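C2C12 myoblasts stably carrying a linearized CMV-driven LacZ construct, clone chosen by β-gal level in the myoblast FDG assay. Compounds tested in 96-well dose-response at 0.5, 1, 5, 10, 20 and 40 μM, N=2 replicates per point, to detect β-gal stabilization.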"}, "[3]": {"test_system": "α7 integrin (LacZ reporter in α7βgal+/− myoblasts)", "experiment": "Myoblast α7+/LacZ integrin FDG assay (Burkin assay in myoblasts, 96-well)", "conditions": "96-well; for Burkin Assay in Myoblasts, signal relative to DMSO: α7+/LacZ myoblasts; for Burkin Assay in Myoblasts, value relative to DMSO: SU9516 analogs, N=3-6"}, "[4]": {"test_system": "β-galactosidase in CMV-LacZ C2C12 myotubes", "experiment": "CMV-LacZ secondary screen in C2C12 myotubes (β-Gal stabilizing assay)", "conditions": "for CMV-LACZ in Myotubes, signal relative to DMSO: C2C12 CMV-LacZ myotubes, fold relative to DMSO; for CMV-LACZ in Myotubes, value relative to DMSO: SU9516 analogs, C2C12 CMV-LacZ, N=2", "summary_of_the_method": "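β-gal stabilization was measured in C2C12 myoblasts or myotubes stably transfected with a CMV-driven LacZ construct, using the FDG β-gal assay. Compounds were tested in dose-response at 0.5, 1, 5, 10, 20 and 40 μM, with two replicates per point.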"}}, "data": [{"compound": "CC1Cc2ccccc2N1C(=O)CSc1nnc(N)s1", "note": "(stereo not drawn) [MLS001160611-01]", "values": [{"measurement": "Burkin Assay in Myotubes, α7 integrin LacZ reporter signal relative to DMSO", "setting": "[1]; 0.5 uM", "value": 0.9452}, {"measurement": "Burkin Assay in Myotubes, α7 integrin LacZ reporter signal relative to DMSO", "setting": "[1]; 1 uM", "value": 0.8628}, {"measurement": "Burkin Assay in Myotubes, α7 integrin LacZ reporter signal relative to DMSO", "setting": "[1]; 5 uM", "value": 1.006}, {"measurement": "Burkin Assay in Myotubes, α7 integrin LacZ reporter signal relative to DMSO", "setting": "[1]; 10 uM", "value": 1.169}, {"measurement": "Burkin Assay in Myotubes, α7 integrin LacZ reporter signal relative to DMSO", "setting": "[1]; 20 uM", "value": 0.8397}, {"measurement": "Burkin Assay in Myotubes, α7 integrin LacZ reporter signal relative to DMSO", "setting": "[1]; 40 uM", "value": 1.24}, {"measurement": "CMV-LACZ in Myoblasts (β-galactosidase activity relative to DMSO)", "setting": "[2]; 0.5 uM", "value": 1.2070}, {"measurement": "CMV-LACZ in Myoblasts (β-galactosidase activity relative to DMSO)", "setting": "[2]; 1 uM", "value": 0.8157}, {"measurement": "CMV-LACZ in Myoblasts (β-galactosidase activity relative to DMSO)", "setting": "[2]; 5 uM", "value": 1.0117}, {"measurement": "CMV-LACZ in Myoblasts (β-galactosidase activity relative to DMSO)", "setting": "[2]; 10 uM", "value": 1.0340}, {"measurement": "CMV-LACZ in Myoblasts (β-galactosidase activity relative to DMSO)", "setting": "[2]; 20 uM", "value": 0.8144}, {"measurement": "CMV-LACZ in Myoblasts (β-galactosidase activity relative to DMSO)", "setting": "[2]; 40 uM", "value": 1.0389}, {"measurement": "Burkin Assay in Myoblasts, signal relative to DMSO", "setting": "[3]; 0.5 uM", "value": 1.1058}, {"measurement": "Burkin Assay in Myoblasts, signal relative to DMSO", "setting": "[3]; 1 uM", "value": 0.9767}, {"measurement": "Burkin Assay in Myoblasts, signal relative to DMSO", "setting": "[3]; 5 uM", "value": 1.004}, {"measurement": "Burkin Assay in Myoblasts, signal relative to DMSO", "setting": "[3]; 10 uM", "value": 1.115}, {"measurement": "Burkin Assay in Myoblasts, signal relative to DMSO", "setting": "[3]; 20 uM", "value": 0.9749}, {"measurement": "Burkin Assay in Myoblasts, signal relative to DMSO", "setting": "[3]; 40 uM", "value": 0.9267}, {"measurement": "CMV-LACZ in Myotubes, signal relative to DMSO", "setting": "[4]; 0.5 uM", "value": 0.9762}, {"measurement": "CMV-LACZ in Myotubes, signal relative to DMSO", "setting": "[4]; 1 uM", "value": 1.2419}, {"measurement": "CMV-LACZ in Myotubes, signal relative to DMSO", "setting": "[4]; 5 uM", "value": 0.8306}, {"measurement": "CMV-LACZ in Myotubes, signal relative to DMSO", "setting": "[4]; 10 uM", "value": 0.9661}, {"measurement": "CMV-LACZ in Myotubes, signal relative to DMSO", "setting": "[4]; 20 uM", "value": 1.0240}, {"measurement": "CMV-LACZ in Myotubes, signal relative to DMSO", "setting": "[4]; 40 uM", "value": 0.9190}]}, {"compound": "COc1ccc(C(=O)/C=C2/C(=O)Nc3ccccc32)cc1", "note": "[MLS001163848-01]", "values": [{"measurement": "Burkin Assay in Myotubes, value relative to DMSO", "setting": "[1]; 0.5 uM", "value": 1.0964}, {"measurement": "Burkin Assay in Myotubes, value relative to DMSO", "setting": "[1]; 1 uM", "value": 1.045}, {"measurement": "Burkin Assay in Myotubes, value relative to DMSO", "setting": "[1]; 5 uM", "value": 0.9587}, {"measurement": "Burkin Assay in Myotubes, value relative to DMSO", "setting": "[1]; 10 uM", "value": 0.7469}, {"measurement": "Burkin Assay in Myotubes, value relative to DMSO", "setting": "[1]; 20 uM", "value": 0.6878}, {"measurement": "Burkin Assay in Myotubes, value relative to DMSO", "setting": "[1]; 40 uM", "value": 0.4876}, {"measurement": "CMV-LACZ in Myoblasts, value relative to DMSO", "setting": "[2]; 0.5 uM", "value": 1.1146}, {"measurement": "CMV-LACZ in Myoblasts, value relative to DMSO", "setting": "[2]; 1 uM", "value": 0.9620}, {"measurement": "CMV-LACZ in Myoblasts, value relative to DMSO", "setting": "[2]; 5 uM", "value": 0.9336}, {"measurement": "CMV-LACZ in Myoblasts, value relative to DMSO", "setting": "[2]; 10 uM", "value": 1.0762}, {"measurement": "CMV-LACZ in Myoblasts, value relative to DMSO", "setting": "[2]; 20 uM", "value": 2.1030}, {"measurement": "CMV-LACZ in Myoblasts, value relative to DMSO", "setting": "[2]; 40 uM", "value": 2.2215}, {"measurement": "Burkin Assay in Myoblasts, value relative to DMSO", "setting": "[3]; 0.5 uM", "value": 1.002}, {"measurement": "Burkin Assay in Myoblasts, value relative to DMSO", "setting": "[3]; 1 uM", "value": 0.8906}, {"measurement": "Burkin Assay in Myoblasts, value relative to DMSO", "setting": "[3]; 5 uM", "value": 0.4854}, {"measurement": "Burkin Assay in Myoblasts, value relative to DMSO", "setting": "[3]; 10 uM", "value": 0.3141}, {"measurement": "Burkin Assay in Myoblasts, value relative to DMSO", "setting": "[3]; 20 uM", "value": 0.297}, {"measurement": "Burkin Assay in Myoblasts, value relative to DMSO", "setting": "[3]; 40 uM", "value": 0.1444}, {"measurement": "CMV-LACZ in Myotubes, value relative to DMSO", "setting": "[4]; 0.5 uM", "value": 1.2133}, {"measurement": "CMV-LACZ in Myotubes, value relative to DMSO", "setting": "[4]; 1 uM", "value": 0.9638}, {"measurement": "CMV-LACZ in Myotubes, value relative to DMSO", "setting": "[4]; 5 uM", "value": 1.1937}, {"measurement": "CMV-LACZ in Myotubes, value relative to DMSO", "setting": "[4]; 10 uM", "value": 4.2586}, {"measurement": "CMV-LACZ in Myotubes, value relative to DMSO", "setting": "[4]; 20 uM", "value": 6.7729}, {"measurement": "CMV-LACZ in Myotubes, value relative to DMSO", "setting": "[4]; 40 uM", "value": 6.8624}]}, {"compound": "C#CC1(O)CCC2C3CCC4=C/C(=N/OCC(=O)NCC(=O)NC(C(=O)O)C(C)C)CC[C@]4(C)C3CC[C@@]21C", "note": "(stereo partly drawn) [MLS001163859-01]", "values": [{"measurement": "Burkin Assay in Myotubes, α7 integrin LacZ reporter signal relative to DMSO", "setting": "[1]; 0.5 uM", "value": 1.132}, {"measurement": "Burkin Assay in Myotubes, α7 integrin LacZ reporter signal relative to DMSO", "setting": "[1]; 1 uM", "value": 1.281}, {"measurement": "Burkin Assay in Myotubes, α7 integrin LacZ reporter signal relative to DMSO", "setting": "[1]; 5 uM", "value": 1.385}, {"measurement": "Burkin Assay in Myotubes, α7 integrin LacZ reporter signal relative to DMSO", "setting": "[1]; 10 uM", "value": 1.249}, {"measurement": "Burkin Assay in Myotubes, α7 integrin LacZ reporter signal relative to DMSO", "setting": "[1]; 20 uM", "value": 1.118}, {"measurement": "Burkin Assay in Myotubes, α7 integrin LacZ reporter signal relative to DMSO", "setting": "[1]; 40 uM", "value": 1.058}, {"measurement": "CMV-LACZ in Myoblasts (β-galactosidase activity relative to DMSO)", "setting": "[2]; 0.5 uM", "value": 1.1113}, {"measurement": "CMV-LACZ in Myoblasts (β-galactosidase activity relative to DMSO)", "setting": "[2]; 1 uM", "value": 1.1684}, {"measurement": "CMV-LACZ in Myoblasts (β-galactosidase activity relative to DMSO)", "setting": "[2]; 5 uM", "value": 1.2009}, {"measurement": "CMV-LACZ in Myoblasts (β-galactosidase activity relative to DMSO)", "setting": "[2]; 10 uM", "value": 1.1812}, {"measurement": "CMV-LACZ in Myoblasts (β-galactosidase activity relative to DMSO)", "setting": "[2]; 20 uM", "value": 0.7593}, {"measurement": "CMV-LACZ in Myoblasts (β-galactosidase activity relative to DMSO)", "setting": "[2]; 40 uM", "value": 0.8104}, {"measurement": "Burkin Assay in Myoblasts, signal relative to DMSO", "setting": "[3]; 0.5 uM", "value": 0.9786}, {"measurement": "Burkin Assay in Myoblasts, signal relative to DMSO", "setting": "[3]; 1 uM", "value": 1.09}, {"measurement": "Burkin Assay in Myoblasts, signal relative to DMSO", "setting": "[3]; 5 uM", "value": 1.055}, {"measurement": "Burkin Assay in Myoblasts, signal relative to DMSO", "setting": "[3]; 10 uM", "value": 1.024}, {"measurement": "Burkin Assay in Myoblasts, signal relative to DMSO", "setting": "[3]; 20 uM", "value": 0.9208}, {"measurement": "Burkin Assay in Myoblasts, signal relative to DMSO", "setting": "[3]; 40 uM", "value": 0.928}, {"measurement": "CMV-LACZ in Myotubes, signal relative to DMSO", "setting": "[4]; 0.5 uM", "value": 0.8756}, {"measurement": "CMV-LACZ in Myotubes, signal relative to DMSO", "setting": "[4]; 1 uM", "value": 1.1326}, {"measurement": "CMV-LACZ in Myotubes, signal relative to DMSO", "setting": "[4]; 5 uM", "value": 1.0856}, {"measurement": "CMV-LACZ in Myotubes, signal relative to DMSO", "setting": "[4]; 10 uM", "value": 1.1727}, {"measurement": "CMV-LACZ in Myotubes, signal relative to DMSO", "setting": "[4]; 20 uM", "value": 1.0965}, {"measurement": "CMV-LACZ in Myotubes, signal relative to DMSO", "setting": "[4]; 40 uM", "value": 1.2482}]}]}
